# Measurements published in patent US8324404B2, “3-thia-10-aza-phenanthrene derivatives” (Nycomed GmbH, priority 2004, dated 2012).
# Biological target: T1, PDE4B2 (Homo sapiens, UniProt Q07343)
# T1 construct: made in house; host or cells: SF21 insect cells (baculovirus, pCR-Bac vector; virus made in SF9 cells)
# Test: Inhibition of PDE4B2 activity, modified [3H]cAMP SPA (scintillation proximity assay) test
# Format: biochemical
# Details: recombinant PDE4B2 (GB no. M97515) expressed in SF21 insect cells; 0.5 μM cAMP; 15 min at 37° C.; read-out: PDE4 Inhibition [measured as −logIC50 (mol/l)] (converted)
# Description: The PDE4B2 (GB no. M97515) was a gift of Prof. M. Conti (Stanford University, USA). It was amplified from the original plasmid (pCMV5) via PCR with primers Rb9 (5′-[…]-3′) and Rb10 (5′-[…]-3′) and cloned into the pCR-Bac vector (Invitrogen, Groningen, NL).
# The recombinant baculovirus was prepared by means of homologous recombination in SF9 insect cells. The expression plasmids were cotransfected with Bac-N-Blue (Invitrogen, Groningen, NL) or Baculo-Gold DNA (Pharmingen, Hamburg) using a standard protocol (Pharmingen, Hamburg). Wt virus-free recombinant virus supernatants were selected using plaque assay methods. After that, high-titre virus supernatants were prepared by amplifying 3 times. PDE4B2 was expressed in SF21 cells by infecting 2×10^6 cells/ml with an MOI (multiplicity of infection) between 1 and 10 in serum-free SF900 medium (Life Technologies, Paisley, UK). The cells were cultured at 28° C. for 48-72 hours, after which they were pelleted for 5-10 min at 1000 g and 4° C.
# The SF21 insect cells were resuspended, at a concentration of approx. 10^7 cells/ml, in ice-cold ([…]) homogenization buffer (20 mM Tris, pH 8.2, containing the following additions: 140 mM NaCl, 3.8 mM KCl, 1 mM EGTA, 1 mM MgCl2, 10 mM-mercaptoethanol, 2 mM benzamidine, 0.4 mM Pefablock, 10 μM leupeptin, 10 μM pepstatin A, 5 μM trypsin inhibitor) and disrupted by ultrasonication. The homogenate was then centrifuged for 10 min at 1000×g and the supernatant was stored at −80° C. until sub-sequent use (see below). The protein content was determined by the Bradford method (BioRad, Munich) using BSA as the standard.
# PDE4B2 activity was inhibited by the said compounds in a modified SPA (scintillation proximity assay) test, supplied by Amersham Biosciences (see procedural instructions “phosphodiesterase [3H]cAMP SPA enzyme assay, code TRKO 7090”), carried out in 96-well microtitre plates (MTP's). The test volume is 100 μl and contains 20 mM Tris buffer (pH 7.4), 0.1 mg of BSA (bovine serum albumin)/ml, 5 mM Mg^2+, 0.5 μM cAMP (including about 50,000 cpm of [3H]cAMP), 1 μl of the respective substance dilution in DMSO and sufficient recombinant PDE (1000×g supernatant, see above) to ensure that 10-20% of the cAMP is converted under the said experimental conditions. […] After a preincubation of 5 min at 37° C., the reaction is started by adding the substrate (cAMP) and the assays are incubated for a further 15 min; after that, they are stopped by adding SPA beads (50 μl). […] After the beads have been sedimented (>30 min), the MTP's are analyzed in commercially available luminescence detection devices. The corresponding IC50 values of the compounds for the inhibition of PDE activities are determined from the concentration-effect curves by means of non-linear regression.
# T1 sequence (Q07343 1-564 isoform Q07343-2): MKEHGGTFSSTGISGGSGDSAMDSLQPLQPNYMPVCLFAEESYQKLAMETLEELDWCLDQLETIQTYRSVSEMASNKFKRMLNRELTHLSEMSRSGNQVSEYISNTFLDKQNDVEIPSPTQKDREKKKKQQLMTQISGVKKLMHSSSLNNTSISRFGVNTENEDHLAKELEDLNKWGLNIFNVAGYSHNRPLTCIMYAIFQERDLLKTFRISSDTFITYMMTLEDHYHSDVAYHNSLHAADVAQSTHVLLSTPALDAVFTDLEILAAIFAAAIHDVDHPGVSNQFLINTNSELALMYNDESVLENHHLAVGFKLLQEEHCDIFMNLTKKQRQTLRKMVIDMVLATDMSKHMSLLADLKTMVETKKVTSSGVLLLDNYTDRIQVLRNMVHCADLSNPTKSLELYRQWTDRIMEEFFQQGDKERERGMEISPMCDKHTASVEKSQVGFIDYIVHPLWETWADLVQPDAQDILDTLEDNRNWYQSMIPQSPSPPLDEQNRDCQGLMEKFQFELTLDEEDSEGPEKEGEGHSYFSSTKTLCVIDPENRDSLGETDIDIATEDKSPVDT
row,Compound,IC50 [nM]
1,"CCOc1cc2c(cc1OC)C(c1ccc(C(=O)N(C(C)C)C(C)C)cc1)=[N+]([O-])[C@@H]1CCS(=O)(=O)C[C@H]21 [Compound 5, 4-((4aR,10aR)-6-Ethoxy-7-methoxy-3,3-dioxo-10-oxy-1,2,3,4,4a,10a-hexahydro-3l^6-thia-10-aza-phenanthren-9-yl)-N,N-diisopropyl-benzamide]",20
2,"CCOc1cc2c(cc1OC)C(c1ccc(C(=O)N(C(C)C)C(C)C)cc1)=N[C@@H]1CCSC[C@H]21 [Compound 1, 4-((4aR,10aR)-6-Ethoxy-7-methoxy-1,4,4a,10a-tetrahydro-2H-3-thia-10-aza-phenanthren-9-yl)-N,N-diisopropyl-benzamide]",0.724
3,"CCOc1cc2c(cc1OC)C(c1ccc(C(=O)N(C(C)C)C(C)C)cc1)=N[C@@H]1CC[S+]([O-])C[C@H]21 (single isomer, unassigned) [Compound 3]",3.31
4,"CCOc1cc2c(cc1OC)C(c1ccc(C(=O)N(C(C)C)C(C)C)cc1)=N[C@@H]1CC[S+]([O-])C[C@H]21 (single isomer, unassigned) [Compound 2]",145
